Data on 41 compounds can be found in patent US20200039973A1, “NOVEL 5-SUBSTITUTED IMIDAZOLYLMETHYL DERIVATIVES” (BAYER CROPSCIENCE AKTIENGESELLSCHAFT, priority 2016, published 2020).

One data set is described as follows: Measurement of LogP values by HPLC on reversed phase columns (EEC directive 79/831 Annex V.A8). Conditions: Table 1; method [a]: LC-UV, acidic range, 0.1% formic acid in water and acetonitrile as eluent. The class given is physicochemical. On the procedure: Measurement of LogP values was performed according to EEC directive 79/831 Annex V.A8 by HPLC (High Performance Liquid Chromatography) on reversed phase columns with the following methods: • ^[a] Log P value is determined by measurement of LC-UV, in an acidic range, with 0.1% formic acid in water and acetonitrile as eluent (linear gradient from 10% acetonitrile to 95% acetonitrile). • ^[b] Log P value is determined by measurement of LC-UV, in a neutral range, with 0.001 molar ammonium acetate solution in water and acetonitrile as eluent (linear gradient from 10% acetonitrile to 95% acetonitrile). • ^[c] Log P value is determined by measurement of LC-UV, in an acidic range, with 0.1% phosphoric acid and acetonitrile as eluent (linear gradient from 10% acetonitrile to 95% acetonitrile).
If more than one Log P value is available within the same method, all the values are given and separated by “+”.
Calibration was done with straight-chain alkan2-ones (with 3 to 16 carbon atoms) with known Log P values (measurement of Log P values using retention times with linear interpolation between successive alkanones). Lambda-max-values were determined using UV-spectra from 200 nm to 400 nm and the peak values of the chromatographic signals.
Consider `N#Cc1cncn1CC(O)(Cc1ccccc1Cl)c1ccc(F)cc1F` (centres unmarked) [I-01], for which the LogP is 3.00^[a]. In the case of `N#Cc1cncn1CC(O)(Cc1ccc(F)cc1F)c1ccc(F)cc1F` (centres unmarked) [I-02], the LogP is 2.82^[a]. On the same count and under the same terms, for `N#Cc1cncn1CC(O)(Cc1ccc(F)c(F)c1F)c1ccc(F)cc1F` (centres unmarked) [I-03] the value was 2.96^[a]. Turning to `N#Cc1cncn1CC(O)(Cc1cccc(F)c1F)c1ccccc1` (centres unmarked) [I-04], the LogP is 2.40^[a]. Take `N#Cc1cncn1CC(O)(Cc1ccc(F)cc1)c1ccccc1` (centres unmarked) [I-05]: the LogP was 2.47^[a]. As to `N#Cc1cncn1CC(O)(Cc1ccc(Cl)cc1F)c1ccc(F)cc1F` (centres unmarked) [I-07], the LogP was 3.17^[a].

Take `N#Cc1cncn1CC(O)(Cc1ccccc1F)c1ccccc1` (centres unmarked) [I-08]: the LogP is 2.51^[a]. On the same count and under the same terms, for `N#Cc1cncn1CC(O)(Cc1ccc(F)cc1F)c1ccccc1` (centres unmarked) [I-09] the value was 2.60^[a]. With `N#Cc1cncn1CC(O)(Cc1ccc(F)cc1F)c1ccc(Cl)s1` (centres unmarked) [I-10], the LogP is 2.90^[a]. As for `Cc1cccc(CC(O)(Cn2cncc2C#N)c2ccc(F)cc2F)c1F` (centres unmarked) [I-11], the LogP is 2.98^[a]. Same read-out and setting: for `N#Cc1cncn1CC(O)(Cc1cccc(F)c1F)c1ccc(F)cc1F` (centres unmarked) [I-12] the value was 2.75^[a]; for `N#Cc1cncn1CC(O)(Cc1ccccc1F)C1(c2ccccc2)CC1` (centres unmarked) [I-14], 3.18^[a]; for `N#Cc1cncn1CC(O)(Cc1ccccc1Cl)C1(c2ccccc2)CC1` (centres unmarked) [I-15], 3.44^[a]. For `N#Cc1cncn1CC(O)(Cc1ccccc1Cl)c1ccccc1` (centres unmarked) [I-17], the LogP was 2.70^[a]. The same measure, in the same setting: for `N#Cc1cncn1CC(O)(Cc1ccc(Cl)cc1F)c1ccccc1` (centres unmarked) [I-18] the value was 2.98^[a]. Consider `N#Cc1cncn1CC(O)(Cc1ccccc1F)c1ccc(Cl)s1` (centres unmarked) [I-19], for which the LogP was 2.78^[a]. On to `N#Cc1cncn1CC(O)(Cc1ccccc1F)c1ccc(F)cc1F` (centres unmarked) [I-20], for which the LogP was 2.68^[a]. Still for that read-out and setting: next, `N#Cc1cncn1CC(O)(Cc1ccc(F)c(F)c1F)c1ccccc1` (centres unmarked) [I-21]: 2.57^[a].

On to `N#Cc1cncn1CC(O)(Cc1cccc(Cl)c1F)c1ccc(F)cc1F` (centres unmarked) [I-22], for which the LogP is 3.06^[a]. With `N#Cc1cncn1CC(O)(Cc1cccc(F)c1F)C1(c2ccccc2)CC1` (centres unmarked) [I-23], the LogP was 3.25^[a]. For `N#Cc1cncn1CC(O)(Cc1ccc(F)cc1)c1ccc(F)cc1F` (centres unmarked) [I-24], the LogP is 2.73^[a]. On the same count and under the same terms, next, `N#Cc1cncn1CC(O)(Cc1ccccc1F)c1cc(F)ccc1F` (centres unmarked) [I-25]: 2.63^[a]. Regarding `N#Cc1cncn1CC(O)(Cc1ccc(Cl)cc1F)c1cc(F)ccc1F` (centres unmarked) [I-26], the LogP was 3.07^[a]. In the case of `N#Cc1cncn1CC(O)(Cc1ccc(F)cc1F)c1cc(F)ccc1F` (centres unmarked) [I-27], the LogP was 2.77^[a].

For the compound `N#Cc1cncn1CC(O)(Cc1ccccc1Cl)c1cc(F)ccc1F` (centres unmarked) [I-28], the LogP is 2.92^[a]. Take `N#Cc1cncn1CC(O)(Cc1cccc(F)c1F)c1cc(F)ccc1F` (centres unmarked) [I-29]: the LogP is 2.73^[a]. Turning to `N#Cc1cncn1CC(O)(Cc1ccccc1F)c1ccco1` (centres unmarked) [I-30], the LogP was 2.15^[a]. Turning to `N#Cc1cncn1CC(O)(Cc1cccc(F)c1F)c1ccco1` (centres unmarked) [I-31], the LogP was 2.25^[a].

`N#Cc1cncn1CC(O)(Cc1ccccc1Cl)c1ccco1` (centres unmarked) [I-32]: the LogP was 2.45^[a].

Consider `N#Cc1cncn1CC(O)(Cc1cccc(Cl)c1F)c1ccco1` (centres unmarked) [I-33], for which the LogP was 2.57^[a]. Regarding `N#Cc1cncn1CC(O)(Cc1ccc(F)cc1F)c1ccco1` (centres unmarked) [I-34, 3-[3-(2,4-difluorophenyl)-2-(2-furyl)-2-hydroxy-propyl]imidazole-4-carbonitrile], the chromatographic logP (usually lipophilicity estimated from chromatographic retention) was 2.32.

Staying with this data set, now noted: Table 2 (formula XVIIa); method [a]: LC-UV, acidic range, 0.1% formic acid in water and acetonitrile as eluent.
Turning to `N#Cc1cncn1CC(=O)Cc1cccc(F)c1F` [XVIIa-02], the LogP was 1.87^[a]. In the case of `N#Cc1cncn1CC(=O)Cc1ccccc1F` [XVIIa-03], the LogP is 1.75^[a]. Turning to `N#Cc1cncn1CC(=O)Cc1ccccc1` [XVIIa-04], the LogP is 1.65^[a]. `N#Cc1cncn1CC(=O)Cc1ccccc1Cl` [XVIIa-05]: the LogP is 1.82^[a].

On to `N#Cc1cncn1CC(=O)Cc1ccccc1Br` [XVIIa-06], for which the LogP was 2.02^[a]. In the case of `N#Cc1cncn1CC(=O)Cc1ccc(Cl)cc1` [XVIIa-07], the LogP was 2.14^[a].

Still in this data set, the particulars now being: reversed-phase HPLC column; Table 1; method [a]: LC-UV, acidic range, 0.1% formic acid in water and acetonitrile as eluent.
On to `N#Cc1cncn1CC(O)(Cc1ccc(F)cc1F)C1(c2ccccc2)CC1` (centres unmarked) [I-06, 3-[3-(2,4-difluorophenyl)-2-hydroxy-2-(1-phenylcyclopropyl)propyl]imidazole-4-carbonitrile], for which the chromatographic logP amounted to 3.29. Turning to `N#Cc1cncn1CC(O)(Cc1ccccc1)c1ccc(F)cc1F` (centres unmarked) [I-13, 3-[2-(2,4-difluorophenyl)-2-hydroxy-3-phenyl-propyl]imidazole-4-carbonitrile], the chromatographic logP was 2.68. Compound `N#Cc1cncn1CC(O)(Cc1cccc(F)c1F)c1ccc(Cl)s1` (centres unmarked) [I-16, 3-[2-(5-chloro-2-thienyl)-3-(2,3-difluorophenyl)-2-hydroxy-propyl]imidazole-4-carbonitrile] gave a chromatographic logP of 2.86.

The same data set, now with this note: reversed-phase HPLC column; Table 2 (formula XVIIa); method [a]: LC-UV, acidic range, 0.1% formic acid in water and acetonitrile as eluent.
For `N#Cc1cncn1CC(=O)C1(c2ccccc2)CC1` [XVIIa-01, 3-[2-oxo-2-(1-phenylcyclopropyl)ethyl]imidazole-4-carbonitrile], the chromatographic logP was determined as 2.17.
